Assay results published in patent publication US20210069145A1, “COMPOSITIONS AND METHODS FOR REDUCING A FATTY ACID DESATURATION INDEX IN A SUBJECT IN NEED THEREOF” (Amarin Pharmaceuticals Ireland Limited, priority 2013, published 2021).

System: Lipoprotein Particle Concentrations
Assay: Lipoprotein particle concentrations, 12-week double-blind placebo-controlled study of >96% E-EPA in statin-treated patients
Assay type: in vivo, human
Settings: 12 weeks; for IDL, Change From Baseline, % / IDL, End of Treatment / Large HDL, Change From Baseline, % / Large HDL, End of Treatment / Large LDL, Change From Baseline, % / Large LDL, End of Treatment / Large VLDL, Change From Baseline, % / Large VLDL, End of Treatment / Medium HDL, Change From Baseline, % / Medium HDL, End of Treatment / Medium VLDL, Change From Baseline, % / Medium VLDL, End of Treatment / Small HDL, Change From Baseline, % / Small HDL, End of Treatment / Small LDL, Change From Baseline, % / Small LDL, End of Treatment / Small VLDL, Change From Baseline, % / Small VLDL, End of Treatment / Total HDL, Change From Baseline, % / Total HDL, End of Treatment / Total LDL, Change From Baseline, % / Total LDL, End of Treatment / Total VLDL, Change From Baseline, % / Total VLDL, End of Treatment: median
Protocol: A multi-center, placebo-controlled, randomized, double-blind, 12-week study was performed to evaluate the efficacy and safety of >96% E-EPA in patients with fasting triglyceride levels ≥200 mg/dl and <500 mg/dl despite statin therapy (the mean of two qualifying entry values needed to be ≥185 mg/dl and at least one of the values needed to be ≥200 mg/dl). The primary objective of the study was to determine the efficacy of >96% E-EPA 2 g daily and 4 g daily, compared to placebo, in lowering fasting TG levels in patients with high risk for cardiovascular disease and with fasting TG levels ≥200 mg/dl and <500 mg/dl, despite treatment to LDL-C goal on statin therapy.
The population for this study was men and women >18 years of age with a body mass index ≤45 kg/m^2 with fasting TG levels greater than or equal to 200 mg/dl and less than 500 mg/dl and on a stable does of statin therapy (with or without ezetimibe). The statin was atorvostatin, rosuvastatin or simvastatin. The dose of statin must have been stable for ≥4 weeks prior to the LDL-C/TG baseline qualifying measurement for randomization. The statin dose was optimized such that the patients are at their LDL-C goal at the LDL-C/TG baseline qualifying measurements. The same statin at the same dose was continued until the study ended.
Approximately 702 patients were randomized at approximately 80 centers in the U.S. The study was a 18- to 20-week, Phase 3, multi-center study consisting of 2 study periods: (1) A 6- to 8-week screening period that included a diet and lifestyle stabilization, a non-statin lipid-altering treatment washout, and an LDL-C and TG qualifying period and (2) A 12-week, double-blind, randomized, placebo-controlled treatment period.
After confirmation of qualifying fasting LDL-C and TG values, eligible patients entered a 12-week, randomized, double-blind treatment period. At Visit 4 (Week 0), patients were randomly assigned to 1 of the following treatment groups: • >96% E-EPA 2 g daily, • >96% E-EPA 4 g daily, or • Placebo.
During the double-blind treatment period, patients were to take 2 capsules (>96% E-EPA or matching placebo) in the morning and 2 capsules in the evening for a total of 4 capsules per day. • Patients in the >96% E-EPA 2 g/day treatment group received 1>96% E-EPA 1 g capsule and 1 matching placebo capsule in the morning and in the evening. • Patients in the >96% E-EPA 4 g/day treatment group received 2>96% E-EPA 1 g capsules in the morning and evening.
The primary efficacy variable for the double-blind treatment period was percent change in TG from baseline to Week 12 endpoint. The secondary efficacy variables for the double-blind treatment period included the following: • Percent changes in total cholesterol (TC), high-density lipoprotein cholesterol (HDL-C), LDL-C, calculated non-HDL-C, and very low-density lipoprotein cholesterol (VLDL-C) from baseline to Week 12 endpoint; • Percent change in very low-density lipoprotein TG from baseline to Week 12; • Percent changes in apolipoprotein A-I (apo A-I), apolipoprotein B (apo B), and apo A-I/apo B ratio from baseline to Week 12; • Percent changes in lipoprotein(a) from baseline to Week 12; • Percent changes in LDL particle number and size, measured by nuclear magnetic resonance, from baseline to Week 12; • Percent change in remnant-like particle cholesterol from baseline to Week 12; • Percent change in oxidized LDL from baseline to Week 12; • Changes in FPG and HbA1c from baseline to Week 12; • Change in insulin resistance, as assessed by the homeostasis model index insulin resistance, from baseline to Week 12; • Percent change in lipoprotein associated phospholipase A2 (Lp-PLA2) from baseline to Week 12; • Change in intracellular adhesion molecule-1 from baseline to Week 12; • Change in interleukin-2 from baseline to Week 12; • Change in plasminogen activator inhibitor-1 from baseline to Week 12. […]

[1] = 2 g/day, placebo-adjusted Hodges-Lehmann median
[2] = 4 g/day, placebo-adjusted Hodges-Lehmann median
[3] = 4 g/day, placebo-adjusted Hodges-Lehmann median, listed as Ethyl Eicosapentaenoate
[4] = 4 g/day, placebo-adjusted Hodges-Lehmann median, listed as IPE

CC/C=C\C/C=C\C/C=C\C/C=C\C/C=C\CCCC(=O)OCC [ethyl eicosapentaenoate, all-cis eicosa-5,8,11,14,17-pentaenoic acid ethyl ester]
IDL, Change From Baseline, % (2 g/day, n = 222): 10.5% | IDL, End of Treatment (2 g/day, n = 222): 63.5 nmol/L | Large HDL, Change From Baseline, % (2 g/day, n = 222): −4.0% | Large HDL, End of Treatment (2 g/day, n = 222): 2.4 µmol/L | Large LDL, Change From Baseline, % (2 g/day, n = 222): 47.7% | Large LDL, End of Treatment (2 g/day, n = 222): 202.0 nmol/L | Large VLDL, Change From Baseline, % (2 g/day, n = 222): −19.7% | Large VLDL, End of Treatment (2 g/day, n = 222): 10.0 nmol/L | Medium HDL, Change From Baseline, % (2 g/day, n = 222): 2.9% | Medium HDL, End of Treatment (2 g/day, n = 222): 7.2 µmol/L | Medium VLDL, Change From Baseline, % (2 g/day, n = 222): 7.9% | Medium VLDL, End of Treatment (2 g/day, n = 222): 59.6 nmol/L | Small HDL, Change From Baseline, % (2 g/day, n = 222): −0.6% | Small HDL, End of Treatment (2 g/day, n = 222): 23.8 µmol/L | Small LDL, Change From Baseline, % (2 g/day, n = 222): −4.3% | Small LDL, End of Treatment (2 g/day, n = 222): 920.5 nmol/L | Small VLDL, Change From Baseline, % (2 g/day, n = 222): 22.1% | Small VLDL, End of Treatment (2 g/day, n = 222): 49.6 nmol/L | Total HDL, Change From Baseline, % (2 g/day, n = 222): 0.7% | Total HDL, End of Treatment (2 g/day, n = 222): 34.7 µmol/L | Total LDL, Change From Baseline, % (2 g/day, n = 222): 4.7% | Total LDL, End of Treatment (2 g/day, n = 222): 1215 nmol/L | Total VLDL, Change From Baseline, % (2 g/day, n = 222): 12.0% | Total VLDL, End of Treatment (2 g/day, n = 222): 122.4 nmol/L | IDL, Median Change From Baseline IPE 2 g/day vs Placebo, % [1]: 8.6% | Large HDL, Median Change From Baseline IPE 2 g/day vs Placebo, % [1]: −13.5% | Large LDL, Median Change From Baseline IPE 2 g/day vs Placebo, % [1]: 26.5% | Large VLDL, Median Change From Baseline IPE 2 g/day vs Placebo, % [1]: −24.2% | Medium HDL, Median Change From Baseline IPE 2 g/day vs Placebo, % [1]: −4.5% | Medium VLDL, Median Change From Baseline IPE 2 g/day vs Placebo, % [1]: 2.6% | Small HDL, Median Change From Baseline IPE 2 g/day vs Placebo, % [1]: −0.2% | Small LDL, Median Change From Baseline IPE 2 g/day vs Placebo, % [1]: −14.7% | Small VLDL, Median Change From Baseline IPE 2 g/day vs Placebo, % [1]: 16.5% | Total HDL, Median Change From Baseline IPE 2 g/day vs Placebo, % [1]: −3.1% | Total LDL, Median Change From Baseline IPE 2 g/day vs Placebo, % [1]: −7.5% | Total VLDL, Median Change From Baseline IPE 2 g/day vs Placebo, % [1]: 1.8% | reduction of median concentration of small LDL particles over baseline when adjusted for placebo control (4 g per day): 13.5% | reduction of median concentration of total HDL over baseline when adjusted for placebo (4 g per day): 7.4% | reduction of median concentration of total LDL over baseline when adjusted for placebo (4 g per day): 7.7% | reduction of median concentration of total VLDL over baseline when adjusted for placebo (4 g per day): 12.2% | IDL, Change From Baseline, % (4 g/day, n = 216): 23.7% | IDL, End of Treatment (4 g/day, n = 216): 63.0 nmol/L | Large HDL, Change From Baseline, % (4 g/day, n = 216): −21.6% | Large HDL, End of Treatment (4 g/day, n = 216): 1.9 µmol/L | Large LDL, Change From Baseline, % (4 g/day, n = 216): 55.2% | Large LDL, End of Treatment (4 g/day, n = 216): 172.5 nmol/L | Large VLDL, Change From Baseline, % (4 g/day, n = 216): −41.9% | Large VLDL, End of Treatment (4 g/day, n = 216): 7.7 nmol/L | Medium HDL, Change From Baseline, % (4 g/day, n = 216): 4.2% | Medium HDL, End of Treatment (4 g/day, n = 216): 6.9 µmol/L | Medium VLDL, Change From Baseline, % (4 g/day, n = 216): −6.9% | Medium VLDL, End of Treatment (4 g/day, n = 216): 49.7 nmol/L | Small HDL, Change From Baseline, % (4 g/day, n = 216): −3.9% | Small HDL, End of Treatment (4 g/day, n = 216): 23.1 µmol/L | Small LDL, Change From Baseline, % (4 g/day, n = 216): −1.1% | Small LDL, End of Treatment (4 g/day, n = 216): 902.5 nmol/L | Small VLDL, Change From Baseline, % (4 g/day, n = 216): 8.3% | Small VLDL, End of Treatment (4 g/day, n = 216): 46.8 nmol/L | Total HDL, Change From Baseline, % (4 g/day, n = 216): −4.0% | Total HDL, End of Treatment (4 g/day, n = 216): 32.6 µmol/L | Total LDL, Change From Baseline, % (4 g/day, n = 216): 3.8% | Total LDL, End of Treatment (4 g/day, n = 216): 1191 nmol/L | Total VLDL, Change From Baseline, % (4 g/day, n = 216): −2.5% | Total VLDL, End of Treatment (4 g/day, n = 216): 110.0 nmol/L | IDL, Median Change From Baseline IPE 4 g/day vs Placebo, % [2]: 10.0% | Large HDL, Median Change From Baseline IPE 4 g/day vs Placebo, % [2]: significantly reduced | Large LDL, Median Change From Baseline IPE 4 g/day vs Placebo, % [2]: increased | Large VLDL, Median Change From Baseline IPE 4 g/day vs Placebo, % [2]: significantly reduced | Medium HDL, Median Change From Baseline IPE 4 g/day vs Placebo, % [2]: −6.5% | Medium VLDL, Median Change From Baseline IPE 4 g/day vs Placebo, % [2]: significantly reduced | Small HDL, Median Change From Baseline IPE 4 g/day vs Placebo, % [2]: −2.8% | Small LDL, Median Change From Baseline IPE 4 g/day vs Placebo, % [2]: significantly reduced | Small VLDL, Median Change From Baseline IPE 4 g/day vs Placebo, % [2]: 2.8% | Total HDL, Median Change From Baseline IPE 4 g/day vs Placebo, % [2]: significantly reduced | Total LDL, Median Change From Baseline IPE 4 g/day vs Placebo, % [2]: significantly reduced | Total VLDL, Median Change From Baseline IPE 4 g/day vs Placebo, % [2]: significantly reduced | Small LDL, Median Change From Baseline IPE 4 g/day vs Placebo, % [3]: −13.5% | Total HDL, Median Change From Baseline IPE 4 g/day vs Placebo, % [3]: −7.4% | Total LDL, Median Change From Baseline IPE 4 g/day vs Placebo, % [3]: −7.7% | Total VLDL, Median Change From Baseline IPE 4 g/day vs Placebo, % [3]: −12.2% | Large HDL, Median Change From Baseline IPE 4 g/day vs Placebo, % [4]: −31.0% | Large LDL, Median Change From Baseline IPE 4 g/day vs Placebo, % [4]: 34.2% | Large VLDL, Median Change From Baseline IPE 4 g/day vs Placebo, % [4]: −46.4% | Medium VLDL, Median Change From Baseline IPE 4 g/day vs Placebo, % [4]: −12.1% | Small LDL, Median Change From Baseline IPE 4 g/day vs Placebo, % [4]: −13.5% | Total HDL, Median Change From Baseline IPE 4 g/day vs Placebo, % [4]: −7.4% | Total LDL, Median Change From Baseline IPE 4 g/day vs Placebo, % [4]: −7.7% | Total VLDL, Median Change From Baseline IPE 4 g/day vs Placebo, % [4]: −12.2%
